PubChem BioAssay AID2060887 (Molecular Pharmacology Branch, DTP, NCI, 2025)

Tested on: 782815-120-R-J1-PDC complex spheroid viability
Assay: Anticancer human tumor 782815-120-R-J1-PDC patient-derived colon adenocarcinoma cell line growth inhibition [RAS]
Settings: for IC50: curve of first compound; for viability, T/C: stronger effect = lower value
Description: RAS pathway inhibitors in Combinations in Complex Spheroids
A high-throughput screen of multi-cell type tumor spheroids was designed to identify active combinations of RAS pathway inhibitors and targeted small molecules. Complex spheroids include a stromal component modeled by human endothelial cells (HUVEC) and fibroblasts modeled by human mesenchymal stem cells (MSCs). The concentration ranges selected for each drug and investigational agent were based upon clinically achievable concentrations if the clinical Cmax of the agent was known.
Compounds. The drugs and investigational agents: abemaciclib (NSC768073), cobimetinib (NSC768068), divarasib (GDC6063, NSC841802), docetaxel (NSC628503), GDC-1971 (RLY-1971, NSC841576), gemcitabine (NSC613327), inavolisib (NSC800729), ipatasertib (NSC767898), KB-0742 (NSC834161), MRTX-1133 (NSC836407), osimertinib (NSC779217), RMC-4630 (NSC839698), RMC-6236 (NSC851965), RMC-6291 (NSC852671), Ro-3306 (NSC812927), sapanisertib (NSC764658), SN-38 (NSC673596), staurosporine (NSC755774), SY5609 (NSC837396), and tovorafenib (DAY101, NSC766906), were obtained from the National Cancer Institute (NCI) Developmental Therapeutics Program Chemical Repository. The FDA-approved anticancer drug set is available from the NCI Developmental Therapeutics Program. […] The stock solutions were prepared in dimethyl sulfoxide (DMSO, Sigma-Aldrich, St. Louis, MO, cat. D2650) at 800-fold the tested concentration and stored at -70 degrees C prior to their use. All drugs and investigational agents were tested over a range starting from a high concentration at or near the clinical Cmax and decreasing in half-log increments. If the clinical Cmax for an agent had not been determined, the highest concentration tested was 10 microM.
Cell Culture. All cells were maintained in an incubator at 37 degrees C and 5% CO2 with 95% humidity. The PDC lines were cultured according to standard operating procedures established by the NCI PDMR. All PDCs were thawed and cultured in Matrigel-coated flasks prepared with a working solution of 1X Ham's F-12 nutrient mix, without supplementation (Invitrogen, Waltham, MA, cat. 11765054), 100 U/mL penicillin-streptomycin (Invitrogen, cat. 15140122), and 2.5% Matrigel (Corning Inc., Corning, NY, cat. 354248) for the first three passages. The 362531-283-R-J2-PDC and 782815-120-R-J1-PDC lines were cultured in 6C/Colon 1B media, which includes advanced DMEM/F-12 (Thermo Fisher Scientific, cat. 12634028), 10 mM HEPES (Thermo Fisher Scientific, cat. 15630080), 1X GlutaMAX supplement (Thermo Fisher Scientific, cat. 35050061), 0.1 mg/mL primocin (InvivoGen, San Diego, CA, cat. ant-pm-2), 10% defined fetal bovine serum, heat inactivated (HyClone Laboratories Inc., Logan, UT, cat. SH30070.03HI), 50% L-WRN conditioned media (ATCC, cat. CRL-3276), 1.25 mM N-Acetyl-L-cysteine (Sigma-Aldrich, cat. A9165), 10 mM nicotinamide (Sigma-Aldrich, cat. N0636), 1X B-27 supplement (Thermo Fisher Scientific, cat. 17504044), 1X N-2 supplement (Thermo Fisher Scientific, cat. 17502048), 50 ng/mL human EGF (Thermo Fisher Scientific, cat. PHG0311), and 10 microM Y-27632 dihydrochloride (Tocris Bioscience, cat. 1254). The K12877-001-R-J1-PDC line was cultured in 6I media, which includes all 6C/Colon 1B media plus 10 ng/mL human FGF-10 (PeproTech, cat. 100-26), 1 ng/mL human FGF-2 (PeproTech, cat. 100-18B), 1 µM prostaglandin E2 (Tocris Bioscience, cat. 2296), […] hydrocortisone (Sigma-Aldrich, cat. H4001), and […] bovine insulin (Sigma-Aldrich, cat. I6634). The K86415-001-R-J1-PDC line was cultured in 6D media, which includes all 6C/Colon 1B media components minus the L-WRN conditioned media. The 485176-168-R4-J1-PDC was cultured in PANC media, which includes all 6C/Colon 1B media plus 100 ng/mL human FGF-10 (PeproTech, cat. 100-26), 500 nM SB-431542 (Selleckchem, cat. S1067), and 10 nM gastrin (Tocris Bioscience, cat. 3006). […]

[1] = second compound 0.0316 µM, first compound 0.0316 µM
[2] = second compound 0.0316 µM, first compound 0.1 µM
[3] = second compound 0.0316 µM, first compound 0.316 µM
[4] = second compound 0.0316 µM, first compound 1 µM
[5] = second compound 0.1 µM, first compound 0.0316 µM
[6] = second compound 0.1 µM, first compound 0.1 µM
[7] = second compound 0.1 µM, first compound 0.316 µM
[8] = second compound 0.1 µM, first compound 1 µM
[9] = second compound 0.316 µM, first compound 0.0316 µM
[10] = second compound 0.316 µM, first compound 0.1 µM
[11] = second compound 0.316 µM, first compound 0.316 µM
[12] = second compound 0.316 µM, first compound 1 µM
[13] = second compound 1 µM, first compound 0.0316 µM
[14] = second compound 1 µM, first compound 0.1 µM
[15] = second compound 1 µM, first compound 0.316 µM
[16] = second compound 1 µM, first compound 1 µM
[17] = second compound 3.16 µM, first compound 0.0316 µM
[18] = second compound 3.16 µM, first compound 0.1 µM
[19] = second compound 3.16 µM, first compound 0.316 µM
[20] = second compound 3.16 µM, first compound 1 µM
[21] = second compound 10 µM, first compound 0.0316 µM
[22] = second compound 10 µM, first compound 0.1 µM
[23] = second compound 10 µM, first compound 0.316 µM
[24] = second compound 10 µM, first compound 1 µM
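Also: spheroids exposed to compounds for 7 days before reading.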
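For viability, T/C in this document: 100% = DMSO vehicle control viability.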

For CCN1CCN(Cc2ccc(Nc3ncc(F)c(-c4cc(F)c5nc(C)n(C(C)C)c5c4)n3)nc2)CC1 + C#Cc1c(F)ccc2cc(O)cc(-c3ncc4c(N5CC6CCC(C5)N6)nc(OCC56CCCN5CC(F)C6)nc4c3F)c12, the IC50 (second compound 0.0316 µM) was > 1 µM, the IC50 (second compound 0.1 µM) was > 1 µM and the IC50 (second compound 0.316 µM) was > 1 µM. For the same compound, the IC50 (second compound 1 µM) was > 1 µM, the IC50 (second compound 3.16 µM) was > 1 µM and the IC50 (second compound 10 µM) was > 1 µM. The viability, T/C (second compound 0.0316 µM, first compound 0.00316 µM) was 103%, the viability, T/C (second compound 0.0316 µM, first compound 0.01 µM) was 105% and the viability, T/C [1] was 112%. For the same compound, the viability, T/C [2] was 102%, the viability, T/C [3] was 109% and the viability, T/C [4] was 123%. It also gave a viability, T/C (second compound 0.1 µM, first compound 0.00316 µM) of 107%, a viability, T/C (second compound 0.1 µM, first compound 0.01 µM) of 104% and a viability, T/C [5] of 95.8%. For the same compound, the viability, T/C [6] was 104%, the viability, T/C [7] was 113% and the viability, T/C [8] was 130%. For the same compound, the viability, T/C (second compound 0.316 µM, first compound 0.00316 µM) was 108%, the viability, T/C (second compound 0.316 µM, first compound 0.01 µM) was 101% and the viability, T/C [9] was 100%. The viability, T/C [10] was 110%, the viability, T/C [11] was 106% and the viability, T/C [12] was 119%. For the same compound, the viability, T/C (second compound 1 µM, first compound 0.00316 µM) was 110%, the viability, T/C (second compound 1 µM, first compound 0.01 µM) was 109% and the viability, T/C [13] was 108%. It also gave a viability, T/C [14] of 103%, a viability, T/C [15] of 111% and a viability, T/C [16] of 113%. It also gave a viability, T/C (second compound 3.16 µM, first compound 0.00316 µM) of 103%, a viability, T/C (second compound 3.16 µM, first compound 0.01 µM) of 99.2% and a viability, T/C [17] of 101%. It also gave a viability, T/C [18] of 104%, a viability, T/C [19] of 128% and a viability, T/C [20] of 119%. It also gave a viability, T/C (second compound 10 µM, first compound 0.00316 µM) of 109%, a viability, T/C (second compound 10 µM, first compound 0.01 µM) of 107% and a viability, T/C [21] of 95.3%. The viability, T/C [22] was 107%, the viability, T/C [23] was 120% and the viability, T/C [24] was 125%.
In the case of C[C@@H](NC(=O)c1ncnc(N)c1Cl)c1ncc(C(=O)Nc2cc(C(F)(F)F)c(Cl)cn2)s1 + C#Cc1c(F)ccc2cc(O)cc(-c3ncc4c(N5CC6CCC(C5)N6)nc(OCC56CCCN5CC(F)C6)nc4c3F)c12, the IC50 (second compound 0.0316 µM) is reported as > 10 µM, the IC50 (second compound 0.1 µM) is reported as > 10 µM and the IC50 (second compound 0.316 µM) is reported as > 10 µM. The IC50 (second compound 1 µM) was > 10 µM, the IC50 (second compound 3.16 µM) was > 10 µM and the IC50 (second compound 10 µM) was > 10 µM. The viability, T/C [1] was 105%, the viability, T/C [2] was 101% and the viability, T/C [3] was 108%. The viability, T/C [4] was 90.7%, the viability, T/C (second compound 0.0316 µM, first compound 3.16 µM) was 85.2% and the viability, T/C (second compound 0.0316 µM, first compound 10 µM) was 72.3%. The viability, T/C [5] was 98.5%, the viability, T/C [6] was 111% and the viability, T/C [7] was 96.4%. For the same compound, the viability, T/C [8] was 99.1%, the viability, T/C (second compound 0.1 µM, first compound 3.16 µM) was 81.4% and the viability, T/C (second compound 0.1 µM, first compound 10 µM) was 71.4%. The viability, T/C [9] was 104%, the viability, T/C [10] was 108% and the viability, T/C [11] was 96.7%. For the same compound, the viability, T/C [12] was 95.9%, the viability, T/C (second compound 0.316 µM, first compound 3.16 µM) was 80.4% and the viability, T/C (second compound 0.316 µM, first compound 10 µM) was 70.5%. The viability, T/C [13] was 105%, the viability, T/C [14] was 114% and the viability, T/C [15] was 111%. It also gave a viability, T/C [16] of 82.5%, a viability, T/C (second compound 1 µM, first compound 3.16 µM) of 71.1% and a viability, T/C (second compound 1 µM, first compound 10 µM) of 61.5%. For the same compound, the viability, T/C [17] was 99.3%, the viability, T/C [18] was 101% and the viability, T/C [19] was 91.6%. The viability, T/C [20] was 87.3%, the viability, T/C (second compound 3.16 µM, first compound 3.16 µM) was 76.4% and the viability, T/C (second compound 3.16 µM, first compound 10 µM) was 65.7%. It also gave a viability, T/C [21] of 105%, a viability, T/C [22] of 100% and a viability, T/C [23] of 92.8%. The viability, T/C [24] was 86.2%, the viability, T/C (second compound 10 µM, first compound 3.16 µM) was 71.6% and the viability, T/C (second compound 10 µM, first compound 10 µM) was 57.2%.
